This is an account of results in PMC10045534, “Preparation and Evaluation of 6-Gingerol Derivatives as Novel Antioxidants and Antiplatelet Agents” (Antioxidants, 2023).

The structures appear in SMILES notation. Read-outs that look alike come from different tables or passages of the source.

One data set concerns washed human platelets. The experiment in a line: Arachidonic acid-induced platelet aggregation (turbidimetric aggregometer). The class given is cell-based. Particulars: washed human platelets treated 3 min, then arachidonic acid (100 μM), mean ± SEM, n = 3, read-out: Antiplatelet IC50. As to the method: (§1) All bioactivity data processing, including the calculation of inhibition percentage, mean and corresponding standard error of the mean (SEM), and IC50 values, was performed by GraphPad Prism 8.0 (La Jolla, CA, USA). IC50 values were calculated from the sigmoidal dose–response curves obtained by the log(inhibitor) vs. response and variable slope (DPPH assay) or the log(inhibitor) vs. normalised response and variable slope nonlinear regression model. On the results obtained, no statistical evaluation was performed; instead, differences greater than two-fold were considered relevant. Plotting of the antiplatelet and COX-1 inhibitory IC50 values and the linear regression of the data was performed by Microsoft Excel.
Human platelet suspension (3 × 10^8/mL in Tyrode’s buffer) was prepared as previously described. The protocol for this study was approved by the institutional review board of Kaohsiung Medical University Hospital (Kaohsiung City, Taiwan). Platelets pre-treated with DMSO (vehicle control) or test compounds were stimulated with arachidonic acid (AA), and platelet aggregation was measured using turbidimetric aggregometer (Chrono-Log Co., Havertown, PA, USA) at 37 °C under stirring conditions (1200 rpm).

The nature of data set [1]: Oxygen radical absorbance capacity (ORAC). To be noted: 1 µM sample; mean ± SEM, n = 3. Here is the method: AAPH ((2,20-Azobis(2-methyl-propionamidine) dihydrochloride) free radical and Trolox standard were purchased from Sigma-Aldrich Hungary. Fluorescein was purchased from Fluka Analytical, Tokyo, Japan. ORAC assay was carried out In a 96-well microplate based on the method from previous study. Briefly, 20 µL of the samples (1 µM final concentration, dissolved in phosphate buffer, pH = 7.4, containing 1% MeOH) were mixed with 60 µL of AAPH (12 mM final concentration, dissolved in phosphate buffer, pH = 7.4) and 120 µL of fluorescein solution (70 nM final concentration, dissolved in phosphate buffer), then the fluorescence was measured (excitation at λ = 485 nm, and emission at λ = 520 nm) through 3 h with 1.5-min cycle intervals with a BMG Labtech FluoStar Optima plate-reader. All experiments were carried out in triplicate, and Trolox was used as standard. The antioxidant capacity is expressed as Trolox Equivalent (TE), as calculated using GraphPad Prism 8.0 (La Jolla, CA, USA).

A short description of data set [2]: Peroxynitrite scavenging (pyrogallol red). To be noted: % inhibition at 500 µM; mean ± SEM, n = 3. Here is the method: Peroxynitrite was synthesised by a continuous flow system using syringe pumps as published previously. Briefly, an acidic solution of hydrogen peroxide (0.6 M H2O2, 0.7 M HCl) was pumped to a junction alongside of sodium nitrite solution (0.6 M) at a flow rate of 1.5 mL/min. After passing 10 cm of tubing, it was mixed with a sodium hydroxide solution (1.5 M), also pumped at 1.5 mL/min. The resulting peroxynitrite solution was a bright yellow colour. The tubing around the reaction was submerged in ice. The concentration of the solution was determined by spectrophotometry and was adjusted to 30 mM with 0.1 M NaOH solution.
In a 96-well microplate 245 µL of pyrogallol red (100 µM final concentration, dissolved in 0.1 M glycine buffer) was mixed with 50 µL of sample (0.5 mM final concentration, dissolved in DMSO) and 5 µL ONOO^– solution (500 µM final concentration, freshly prepared). After mixing and keeping it at room temperature for 30 min the absorbance was measured at 550 nm using a FluoStar Optima plate reader (software version 2.20R2, BMG Labtech, Ortenberg, Germany).

The nature of data set [3]: DPPH free radical scavenging assay. Particulars: for IC50: 30 min, room temperature, MeOH, mean ± SEM, n = 2, read-out: DDPH IC50. As to the method: as §1
DPPH (1,10-diphenyl-2-picrylhydrazyl) was purchased from Thermo Fisher Scientific. DPPH free radical scavenging assay was performed with some modifications based on the method by previous study. Briefly, in a 96-well microplate, microdilutions of samples (100 µL, starting from 200 µM in HPLC grade MeOH) were made and 100 µL of DPPH reagent (100 µM in MeOH) was added. After 30 min at room temperature in the dark, the absorbance was measured at 550 nm using a FluoStar Optima plate reader (software version 2.20R2, BMG Labtech Ortenberg, Germany). For the blank control, MeOH was used. The scavenging activity was calculated as Inhibition (%) = (A0 − As)/A0 × 100, and IC50 values were calculated by GraphPad Prism 8.0 (La Jolla, CA, USA).

The target of another data set is T1, COX-1 enzyme (Ovis aries, UniProt P05979).
T1 construct: purchased BioVision (via VWR International Kft.) K548-100
T1 sequence (P05979 25-600): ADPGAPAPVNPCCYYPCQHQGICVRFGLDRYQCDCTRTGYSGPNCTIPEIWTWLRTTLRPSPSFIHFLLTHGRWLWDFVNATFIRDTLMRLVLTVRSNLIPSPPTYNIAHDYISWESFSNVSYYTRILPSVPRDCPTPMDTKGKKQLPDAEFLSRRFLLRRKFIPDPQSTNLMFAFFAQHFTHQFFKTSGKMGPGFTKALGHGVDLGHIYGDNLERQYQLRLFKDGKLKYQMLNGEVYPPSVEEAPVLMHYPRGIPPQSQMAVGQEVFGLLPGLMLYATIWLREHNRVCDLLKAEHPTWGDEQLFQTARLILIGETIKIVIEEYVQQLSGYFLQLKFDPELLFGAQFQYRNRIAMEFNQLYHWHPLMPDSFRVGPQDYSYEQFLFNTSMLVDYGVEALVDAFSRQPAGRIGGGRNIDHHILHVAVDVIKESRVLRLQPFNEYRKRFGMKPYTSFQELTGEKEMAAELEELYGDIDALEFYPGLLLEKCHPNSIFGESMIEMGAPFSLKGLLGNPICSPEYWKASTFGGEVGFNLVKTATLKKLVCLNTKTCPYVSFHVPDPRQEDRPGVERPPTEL
The experiment in a line: COX-1 inhibitor screening kit, fluorometric (BioVision K548-100). Particulars: for LLE(COX-1): LLE = pIC50 − logPpredicted; for IC50: mean ± SEM, n = 2. The class given is biochemical. As to the method: COX-1 inhibitory activity was tested based on the fluorometric method as described in BioVision’s COX-1 inhibitor screening kit leafkit (K548-100, BioVision, CA, USA). Sample solutions were prepared by dissolving in DMSO and subsequently buffer, to get desired concentrations. In a 96-well white plate (655101, F-bottom, Grenier bio-one, Germany), 80 µL reaction mix (containing 76 µL assay buffer, 1 µL COX Probe, 2 µL COX cofactor, and 1 µL COX-1 enzyme) was added to 10 µL sample solution, DMSO and assay buffer to get test wells assigned for sample screen (S), negative control (N) and blank, respectively. An aliquot of 10 µL of arachidonic/NaOH solution was added to each well using a multi-channel pipette to initiate the reaction at the same time, and the fluorescence of each well was measured kinetically at Ex/Em 550/610 nm, at 25OC for 10 min using a FluoStar Optima plate reader (BMG Labtech, Ortenberg, Germany). The COX inhibitory activity of SC560, a standard inhibitor, was also determined.
The change in fluorescence between two points, T1 and T2 were determined, and relative inhibition was calculated according to the following equation:% Inhibition = (ΔN − ΔS)/ΔN × 100 (1) where N is the absorbance of the negative control, and S is that of the sample.
Dose-effect studies on the compounds were used to determine the concentration that inhibits 50% of the enzyme activity. The sigmoidal dose–response model was obtained by using the software GraphPad Prism 8.0 (La Jolla, CA, USA), and these were used to determine the IC50 values of the compounds.

In another data set the target is T2, xanthine oxidase (XO) (Bos taurus, UniProt P80457).
T2 construct: purchased Sigma (Merck KGaA)
Description: Xanthine oxidase inhibition, spectrophotometric. Particulars: for XO Inhibition (%): % inhibition at 100 µM, mean ± SEM, n = 3; for inhibition at 100 µM: read-out: XO Inhibition (%). The class given is biochemical. As to the method: The xanthine oxidase (XO) inhibitory activity of the compounds was determined using continuous spectrophotometric rate based on a modified protocol of Sigma. […]. In a 96-well plate, the final reaction mixture consisted of 10 µL of sample (dissolved in DMSO, […] stock solution, 100 µM final), 100 µL of xanthine solution (0.15 mM, pH = 7.4), 140 µL of buffer (potassium phosphate, pH = 7.5) and 50 µL of XO (0.2 units/mL). When measuring the enzyme activity, control buffer was used in place of the sample. Allopurinol was applied as a control. The reaction was initiated by the automatic addition of 50 µL of XO solution. The absorbance of XO-induced uric acid production from xanthine was measured at 290 nm for 3 min in a 96-well plate on a BMG Labtech FluoStar Optima plate reader. The inhibitory percentage values were calculated by using Graph Pad Prism 8.0 (La Jolla, CA, USA).

Data set [4] in a line: Kinetic aqueous solubility in PBS pH 7.4. The class given is physicochemical. Particulars: PBS (pH 7.4), 37 °C, pH 7.4, aqueous buffer, kinetic from dmso stock, after 2 h at 37 °C in PBS, 500 μM target concentration, mean ± SEM, n = 3. As to the method: Preparative purifications over RP-HPLC were performed on a Kinetex XB C18 (5 μm, 250 × 21.2 mm) column on an Armen Spot Prep II integrated HPLC purification system (Gilson, Middleton, WI, USA) with dual-wavelength detection, with an adequately chosen combination of acetonitrile–water, and a flow rate of 15 mL/min. The purity of the compounds obtained was determined by RP-HPLC analyses on a system of two Jasco PU 2080 pumps, a Jasco AS-2055 Plus intelligent sampler connected to a JASCO LC-Net II/ADC equipped with a Jasco MD-2010 Plus PDA detector (Jasco International Co. Ltd., Hachioji, Tokyo, Japan) utilizing a Kinetex C-18 (5 μm, 250 × 4.6 mm) column (Phenomenex Inc., Torrance, CA, USA) and applying a gradient of 30%–100% aqueous AcN in 30 min followed by 100% ACN for 10 min with a flow rate of 1 mL/min. Analysis of samples from the PAMPA and kinetic solubility assays was performed the same way, by using 3-point calibrations and integrating each compound at its UV absorption maximum.
In a 96-well polypropylene plate (Greiner Bio-One, Kremsmünster, Austria), 15 μL stock solutions were added to 285 μL PBS (pH 7.4) to make starting donor solution with 500 μM as target concentration. For each sample, 3 replicates were measured. The samples were covered and shaken at 37 °C, 300 rpm for 2 h (Heidolph Titramax 1000, Heidolph Instruments GmbH & Co. KG, Schwabach, Germany). After that, each sample was transferred into a filter plate (MSSBLPC, Multiscreen Filter plate, Merck kGaA) and filtered (Vaccum Manifold, Merck kGaA, Darmstadt, Germany). The filtrates were transferred into HPLC vials, and acetonitrile (AcN) was added to aliquot to avoid precipitation. The final solvent ratio was AcN:PBS (70:30). Filtrate concentration was determined by HPLC-UV (see Section 2.1) using 3-points calibration.

T2 sequence (P80457 2-1332 limits assumed): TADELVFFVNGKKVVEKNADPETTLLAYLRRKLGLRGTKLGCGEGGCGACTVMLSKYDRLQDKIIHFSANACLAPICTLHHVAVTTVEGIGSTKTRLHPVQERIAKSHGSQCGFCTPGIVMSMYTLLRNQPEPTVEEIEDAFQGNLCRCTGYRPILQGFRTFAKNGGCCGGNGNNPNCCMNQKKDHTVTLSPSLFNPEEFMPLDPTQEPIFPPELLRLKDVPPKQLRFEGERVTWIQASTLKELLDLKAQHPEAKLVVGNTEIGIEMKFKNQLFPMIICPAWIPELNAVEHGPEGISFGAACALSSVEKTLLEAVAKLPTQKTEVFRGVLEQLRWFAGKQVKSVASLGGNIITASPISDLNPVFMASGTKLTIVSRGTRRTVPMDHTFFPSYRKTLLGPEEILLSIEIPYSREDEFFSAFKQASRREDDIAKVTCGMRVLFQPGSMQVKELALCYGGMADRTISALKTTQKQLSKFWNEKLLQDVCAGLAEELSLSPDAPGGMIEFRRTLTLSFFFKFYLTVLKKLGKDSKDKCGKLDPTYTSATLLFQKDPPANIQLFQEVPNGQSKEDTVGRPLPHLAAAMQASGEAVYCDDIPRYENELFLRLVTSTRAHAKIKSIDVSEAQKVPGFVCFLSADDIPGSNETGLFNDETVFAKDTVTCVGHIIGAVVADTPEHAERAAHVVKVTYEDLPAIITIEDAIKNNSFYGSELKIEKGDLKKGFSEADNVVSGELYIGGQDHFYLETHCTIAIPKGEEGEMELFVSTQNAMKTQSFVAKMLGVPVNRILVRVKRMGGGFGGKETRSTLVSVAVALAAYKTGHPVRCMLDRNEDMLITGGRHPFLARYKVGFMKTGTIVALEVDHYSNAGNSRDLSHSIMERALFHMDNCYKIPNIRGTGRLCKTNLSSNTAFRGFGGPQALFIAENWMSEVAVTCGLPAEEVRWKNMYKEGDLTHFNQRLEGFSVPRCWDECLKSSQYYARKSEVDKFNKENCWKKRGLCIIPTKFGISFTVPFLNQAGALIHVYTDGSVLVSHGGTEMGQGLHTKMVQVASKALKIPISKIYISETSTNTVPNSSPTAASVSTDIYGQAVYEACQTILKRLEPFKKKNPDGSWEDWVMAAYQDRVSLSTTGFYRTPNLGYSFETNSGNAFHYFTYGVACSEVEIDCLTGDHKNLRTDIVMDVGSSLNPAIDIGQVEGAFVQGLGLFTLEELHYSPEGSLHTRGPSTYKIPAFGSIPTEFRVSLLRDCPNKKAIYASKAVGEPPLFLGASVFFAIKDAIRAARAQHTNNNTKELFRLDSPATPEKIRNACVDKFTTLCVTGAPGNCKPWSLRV

As to `CCCCCC(=O)CC(=O)/C=C/c1ccc(O)c(OC)c1` [Compound 11, 6-dehydrogingerdione], the IC50 is 4.1 ± 1 µM with washed human platelets, 9.04 ± 0.19 µM in data set [3] and 23.1 ± 9.3 µM on COX-1 enzyme. Also, the “ORAC TE” value in data set [1] is reported as 1.98 ± 0.12 Trolox equivalents (TE). Further, in data set [2], the “ONOO^– Scavenging (%)” value is less than 5.0%. Besides, the “LLE(COX-1)” value on COX-1 enzyme is on record as 1.14. Besides, the “XO Inhibition (%)” value at xanthine oxidase (XO) is on record as less than 5.0%.

Take `CCCCC/C(O)=C/C(=O)/C=C/c1ccc(O)c(OC)c1` [Compound 11A]: in data set [4], the solubility (kinetic) at 2 h was 54 ± 1.3 µM.

`CCCCCC(=O)/C=C(O)/C=C/c1ccc(O)c(OC)c1` [Compound 11B]: the kinetic solubility at 2 h in data set [4] was found to be 54 ± 1.3 µM.

For `CCCCCC(=O)CC(=O)/C=C/c1ccc(O)c(OC)c1` [Compound 11C], the solubility (kinetic) at 2 h in data set [4] came to 54 ± 1.3 µM.

Turning to `CCCCCC(=O)CC(=O)/C=C/c1ccc(O)cc1` [Compound 12, (E)-1-(4-hydroxyphenyl)dec-1-ene-3,5-dione], the IC50 in the data set with washed human platelets (Platelet, 0.05 h) was 71.7 ± 28.3 µM; in data set [3], greater than 200 µM; at COX-1 enzyme it was greater than 200 µM. In addition, the “ORAC TE” value in data set [1] is 2.89 ± 0.49 Trolox equivalents (TE). Further, in data set [2], the “ONOO^– Scavenging (%)” value is less than 5.0%. Further, the “DPPH scavenging activity (in words)” value in data set [3] was “inactive”. Moreover, the inhibition at 100 µM at xanthine oxidase (XO) was less than 5%.

Turning to `CCCCC/C(O)=C/C(=O)/C=C/c1ccc(O)cc1` [Compound 12A], in data set [4], the solubility (kinetic) at 2 h was found to be 15.6 ± 0.1 µM.

Take `CCCCCC(=O)/C=C(O)/C=C/c1ccc(O)cc1` [Compound 12B]: in data set [4], the solubility (kinetic) at 2 h was 15.6 ± 0.1 µM.

On to `CCCCCC(=O)CC(=O)/C=C/c1ccc(O)cc1` [Compound 12C], for which the solubility (kinetic) at 2 h in data set [4] is 15.6 ± 0.1 µM.

For the compound `CCCCCC(=O)CC(=O)CCc1ccc(O)c(OC)c1` [Compound 13, 6-gingerdione], the values for the IC50 (in the data set with washed human platelets; in data set [3]; against COX-1 enzyme) were 3.6 ± 0.9 µM, 10.9 ± 0.69 µM and 11.8 ± 5.4 µM, respectively. The “ORAC TE” value in data set [1] is on record as 2.60 ± 0.06 Trolox equivalents (TE). Moreover, in data set [2], the “ONOO^– Scavenging (%)” value is listed as less than 5.0%. The “LLE(COX-1)” value on COX-1 enzyme is listed as 1.53. Also, the “XO Inhibition (%)” value at xanthine oxidase (XO) is listed as less than 5.0%.

As for `CCCCC/C(O)=C/C(=O)CCc1ccc(O)c(OC)c1` [Compound 13A], the solubility (kinetic) at 2 h in data set [4] came to 315 ± 23.7 µM.

In the case of `CCCCCC(=O)/C=C(\O)CCc1ccc(O)c(OC)c1` [Compound 13B], the kinetic solubility at 2 h in data set [4] turned out to be 315 ± 23.7 µM.

Take `CCCCCC(=O)CC(=O)CCc1ccc(O)c(OC)c1` [Compound 13C]: the solubility (kinetic) at 2 h in data set [4] stood at 315 ± 23.7 µM.

As for `Oc1ncnc2[nH]ncc12` [allopurinol, reference compound], the inhibition at 100 µM on xanthine oxidase (XO) was 98.8 ± 0.11%.
